What all share (assay): [3H]-hypoxanthine incorporation assay
Common to all, as to format: cell-based, Plasmodium falciparum

Assay [1] relates to Dd2 DDD107458 (Dd2 + pfeEF2). The procedure: (§1) ^[a]72-h [^3H] hypoxanthhine incorporation assay. Data is expressed as mean±s.d..
(§2) P. falciparum asexual blood stage parasites were cultured in human red blood cells (RBC, Blutspende SRK, Zurich) at a hematocrit of 5% in RPMI 1640 medium. The RPMI 1640 medium (ThermoFisher Scientific #51800−043) was supplemented with the following: 24 mM NaHCO3 (pH 7.3, Sigma-Aldrich #31437−500G-R), 25 mM Hepes (Sigma-Aldrich #H4034−500G), 0.36 mM hypoxanthine (Sigma-Aldrich # H9377−25G), 100 µg mL^-1 neomycin (Sigma-Aldrich #N6386−100G) and 0.5% Albumax II (Thermo Fisher #11021−045). Additionally, 2 mM choline chloride (279 mg/L, Sigma-Aldrich #C7527−100G) was added to the culture to block the induction of sexual commitment as described. ^[31^] The RPMI 1640 medium and components were dissolved in water (Milli-Q purified), stirred for at least 3 h, and then sterile filtered (0.22 μm pore size) with a bottle top filter (Corning # 431118). Parasite cultures were maintained in an atmosphere of 3% O2, 4% CO2, and 93% N2 in air-tight chambers at 37 °C. The [^3H]-hypoxanthine incorporation assay was used to test compound activity in the specific parasite lines as described.^[32^] Briefly, compounds were dissolved in DMSO (10 mM) and diluted in a hypoxanthine-free culture medium. A limiting dilution was performed over a 64-fold range (6-step twofold dilution) in a 96-well plate in duplicates. For every starting concentration, a limiting dilution was performed over a 64-fold range (6-step twofold dilution) in a 96-well plate in two biological duplicates. Parasites were added at 100 µL to each well containing the compound to obtain a final parasitemia of 0.3% and haematocrit of 1.25%. The plates were incubated for 48 h before 0.25 µCi of [^3H]-hypoxanthine was added per well for an additional 24 h. Parasites were harvested on a glass-fiber filter with a Microbeta FilterMate cell harvester (Perkin Elmer, Waltham, USA) and radioactivity was counted using a MicroBeta2 liquid scintillation counter (Perkin Elmer, Waltham, US). The results were recorded, processed by subtraction of the mean background signal obtained from the uninfected RBC controls and expressed as percentage of untreated controls. The fifty percent inhibitory concentration (IC50) was calculated by using nonlinear, four parameter (variable slope) curve fitting as described ^[33^] after importing into GraphPad Prism (version 8.3.0).

Assay [2] relates to Dd2 DSM265 (Dd2 + pfdhodh). The protocol:
as §1, §2

The test system of assay [3] is Dd2 Fosmidomycin (Dd2 + pfdxr). The protocol: as §1, §2
The test system of assay [4] is Dd2 GNF156 (Dd2 + pfcarl). The protocol:
as §1, §2

Assay [5] has as its system Dd2 NITD609 (Dd2 + pfatp4). The procedure: as §1, §2
In a further assay the test system is P. falciparum Dd2. The procedure: as §1, §2
The next assay concerns P. falciparum K1. The procedure: as §1, §2
The next assay has as its system Dd2b2^31-R1.1.
A further assay deals with Dd2b2^31-R3.2.
In another assay the test system is Dd2b2^WT. The following applies: for IC50: Plasmodium falciparum.
The mark [6] stands for this setting: Plasmodium falciparum, DD2, 72 h.
Setting [7] is: Plasmodium falciparum, read-out: mean IC50 value ± s.d.

Structures are written as SMILES. Read-outs that look alike come from different tables or passages of the source.

Usually IC50 stands for the point on the concentration scale where inhibition reaches its midpoint. For `CN1CCN(Cc2ccc(O)c(NC(=O)c3cccc(Oc4cc(C(F)(F)F)ccn4)c3)c2)CC1` [Compound 31, N-(2-hydroxy-5-((4-methylpiperazin-1-yl)methyl)phenyl)-3-((4-(trifluoromethyl)pyridin-2-yl)oxy)benzamide], the “IC50 fold shift relative to Dd2 strain” value in assay [1] (Dd2 DDD107458) is 0.6; in [2] (Dd2 DSM265) it was 0.3; in assay [3] (Dd2 Fosmidomycin), 0.3; in [4] (Dd2 GNF156) it was 0.7; in [5] (Dd2 NITD609), 0.7; in the assay on P. falciparum Dd2 (Dd2), 1.0. Moreover, the concentration for half-maximal inhibition (IC50) came out at 5.6 ± 0.9 nM in assay [1] (setting [6]); 2.8 ± 0.5 nM in [2] (Plasmodium falciparum, 72 h); 2.4 ± 0.6 nM in [3] (setting [6]); 6.6 ± 0.5 nM in [4] (setting [6]); 6.2 ± 2.5 nM in [5] (setting [6]); 9.3 ± 0.4 nM in the assay with P. falciparum Dd2 (setting [6]). For the same compound, the IC50 with P. falciparum K1 (Plasmodium falciparum, K1, 72 h) stood at 1.3 ± 0.2 nM; in the assay on Dd2b2^31-R1.1 (setting [7]), 35.8 ± 11.2 nM; in the assay on Dd2b2^31-R3.2 (setting [7]) it was 264 ± 40.5 nM; in the assay on Dd2b2^WT (72 h, read-out: Parent (Dd2b2^WT) IC50) it was 4.5 ± 0.7 nM; in the assay on Dd2b2^WT (read-out: mean IC50 value ± s.d.), 13.3 ± 1.7 nM. Also, the “IC50 ratio relative to NF54 strain” value in the assay on P. falciparum Dd2 (Dd2) is reported as 5.1; in the assay with P. falciparum K1 (K1) it was 0.7. The figures for the “IC50 fold change relative to Dd2b2^WT” value with Dd2b2^31-R1.1 (Dd2b2^31-R1.1), in the assay with Dd2b2^31-R3.2 (Dd2b2^31-R3.2) and with Dd2b2^WT (Dd2b2^WT) were 2.7, 19.8 and 1.0, respectively.

The record behind these values is publication PMC12668308, “A Novel Antimalarial Agent that Inhibits Protein Synthesis in Plasmodium falciparum” (Angewandte Chemie (International Ed. in English), 2025).
